One may read the IC50 as the concentration needed to halve the response being measured. Read a low IC50 as greater potency in that assay.

These results are taken from ChEMBL document CHEMBL1123552 (J Med Chem, 1987).

For test [1], the system named is Mus musculus. In words: Antimalarial activity against Plasmodium berghei in mice (Mus musculus) expressed as number of cures was determined at a dose of 160 mg/kg. Format: functional.
Test [2] concerns Mus musculus. Description: Antimalarial activity against Plasmodium berghei in mice (Mus musculus) expressed as number of cures was determined at a dose of 40 mg/kg. The class given is functional.
Test [3] deals with Mus musculus. Description: Antimalarial activity against Plasmodium berghei in mice (Mus musculus) expressed as number of cures was determined at a dose of 640 mg/kg. Format: functional.
Test [4] has as its system Plasmodium falciparum. In words: In vitro antimalarial activity against Plasmodium falciparum D6 Sierra Leone. The class given is functional, organism-based.
Test [5] deals with Plasmodium falciparum. Description: In vitro antimalarial activity against Plasmodium falciparum W-2 (Indochina). Format: functional, organism-based.

SMILES strings stand for the structures. ≈ marks a conversion by molar mass, not a printed value. Where “and” joins values, the source holds several entries; their conditions need not be identical. Identical values can stand only once.

As for `C[C@@H]1CC[C@H]2[C@@H](C)C(=O)O[C@@H]3O[C@@]4(C)CC[C@@H]1[C@]32OO4` [ARTEMISININ], the No. of cures in the test with Mus musculus [1] was 5; in the test with Mus musculus [2] (40 mg/kg), 3 and 2; in the test with Mus musculus [3], 5. The IC50 was found to be 2.93 ng/mL (≈ 10.4 nM) in the test with Plasmodium falciparum [4] and 0.66 ng/mL (≈ 2.34 nM) in the test with Plasmodium falciparum [5].

`C[C@H]1[C@@H](OCCC(=O)O)O[C@@H]2OC3(C)CC[C@H]4[C@H](C)CC[C@@H]1[C@@]24OO3` (single isomer, unassigned; 8b): the 50% inhibitory concentration (IC50) in the test on Plasmodium falciparum [4] was determined as 51.7 ng/mL (≈ 145 nM); with Plasmodium falciparum [5] it was 35.6 ng/mL (≈ 100 nM).

In the case of `COC(=O)CCCO[C@H]1O[C@@H]2OC3(C)CC[C@H]4[C@H](C)CC[C@@H]([C@H]1C)[C@@]24OO3` (single isomer, unassigned), the results for the IC50 with Plasmodium falciparum [4] and with Plasmodium falciparum [5] were 3.06 ng/mL (≈ 7.96 nM) and 0.95 ng/mL (≈ 2.47 nM), respectively.

Regarding `C[C@H]1[C@@H](OCc2ccc(C(=O)O)cc2)O[C@@H]2OC3(C)CC[C@H]4[C@H](C)CC[C@@H]1[C@@]24OO3` (single isomer, unassigned), the 50% inhibitory concentration (IC50) in the test with Plasmodium falciparum [4] was found to be 1.74 ng/mL (≈ 4.16 nM); in the test with Plasmodium falciparum [5], 0.92 ng/mL (≈ 2.2 nM).

`C[C@H]1[C@H](OC(=O)CCC(=O)[O-])O[C@@H]2O[C@@]3(C)CC[C@H]4[C@H](C)CC[C@@H]1[C@@]24OO3.[Na+]` [SODIUM ARESUNATE] showed a No. of cures with Mus musculus [3] of 5.

As for `CCOC(=O)CO[C@H]1O[C@@H]2OC3(C)CC[C@H]4[C@H](C)CC[C@@H]([C@H]1C)[C@@]24OO3` (single isomer, unassigned), the IC50 in the test on Plasmodium falciparum [4] amounted to 0.6 ng/mL (≈ 1.62 nM); with Plasmodium falciparum [5] it was 0.26 ng/mL (≈ 0.702 nM).

On to `C[C@H]1[C@@H](OCC(=O)O)O[C@@H]2OC3(C)CC[C@H]4[C@H](C)CC[C@@H]1[C@@]24OO3` (single isomer, unassigned), for which the half-inhibitory concentration (IC50) in the test with Plasmodium falciparum [4] was determined as 53.8 ng/mL (≈ 157 nM); in the test with Plasmodium falciparum [5] it was 26.2 ng/mL (≈ 76.6 nM).

For the molecule `C[C@H]1[C@@H](OCCCC(=O)O)O[C@@H]2OC3(C)CC[C@H]4[C@H](C)CC[C@@H]1[C@@]24OO3` (single isomer, unassigned), the values for the IC50 in the test with Plasmodium falciparum [4] and in the test with Plasmodium falciparum [5] were 75.5 ng/mL (≈ 204 nM) and 10.5 ng/mL (≈ 28.4 nM), respectively.

For the molecule `C[C@H]1[C@@H](OCCCC(=O)O)O[C@@H]2O[C@]3(C)CC[C@H]4[C@H](C)CC[C@@H]1[C@@]24OO3`, the values for the 50% inhibitory concentration (IC50) with Plasmodium falciparum [4] and in the test with Plasmodium falciparum [5] were 17.9 ng/mL (≈ 48.3 nM) and 8.04 ng/mL (≈ 21.7 nM), respectively.

Regarding `COC(=O)CCO[C@H]1O[C@@H]2OC3(C)CC[C@H]4[C@H](C)CC[C@@H]([C@H]1C)[C@@]24OO3` (single isomer, unassigned), the values for the 50% inhibitory concentration (IC50) with Plasmodium falciparum [4] and in the test on Plasmodium falciparum [5] were 1.84 ng/mL (≈ 4.97 nM) and 0.64 ng/mL (≈ 1.73 nM), respectively.

In the case of `C[C@H]1[C@@H](OCCC(=O)O)O[C@@H]2OC3(C)CC[C@H]4[C@H](C)CC[C@@H]1[C@@]24OO3` (single isomer, unassigned; 7b), the IC50 is 85 ng/mL (≈ 239 nM) with Plasmodium falciparum [4] and 23.3 ng/mL (≈ 65.3 nM) in the test on Plasmodium falciparum [5].

For the molecule `C[C@@H]1[C@H](OCc2ccc(C(=O)O)cc2)O[C@@H]2O[C@@]3(C)CC[C@@H]4[C@@H](C)CC[C@@H]1[C@]24OO3` [ARTELINIC ACID], the No. of cures with Mus musculus [1], with Mus musculus [2] and in the test on Mus musculus [3] was 5 throughout. The concentration for half-maximal inhibition (IC50) with Plasmodium falciparum [4] came to 4.07 ng/mL (≈ 9.73 nM); in the test on Plasmodium falciparum [5] it was 1.38 ng/mL (≈ 3.3 nM).

Turning to `COC(=O)c1ccc(CO[C@H]2O[C@@H]3OC4(C)CC[C@H]5[C@H](C)CC[C@@H]([C@H]2C)[C@@]35OO4)cc1` (single isomer, unassigned), the IC50 in the test with Plasmodium falciparum [4] amounted to 0.77 ng/mL (≈ 1.78 nM); in the test on Plasmodium falciparum [5] it was 0.37 ng/mL (≈ 0.855 nM).
